The results in this text go back to patent publication US11098032B2, “Pyran dervatives as CYP11A1 (cytochrome P450 monooxygenase 11A1) inhibitors” (ORION CORPORATION, priority 2016, dated 2021).

Bounds are passed on as bounds.

This assay addresses T1, CYP11A1 (Homo sapiens, UniProt P05108).
T1 construct: human H295R adrenocortical carcinoma cell line was used as source of enzyme; endogenous in cells; host or cells: H295R human adrenocortical carcinoma cells
T1 sequence (P05108 40-521): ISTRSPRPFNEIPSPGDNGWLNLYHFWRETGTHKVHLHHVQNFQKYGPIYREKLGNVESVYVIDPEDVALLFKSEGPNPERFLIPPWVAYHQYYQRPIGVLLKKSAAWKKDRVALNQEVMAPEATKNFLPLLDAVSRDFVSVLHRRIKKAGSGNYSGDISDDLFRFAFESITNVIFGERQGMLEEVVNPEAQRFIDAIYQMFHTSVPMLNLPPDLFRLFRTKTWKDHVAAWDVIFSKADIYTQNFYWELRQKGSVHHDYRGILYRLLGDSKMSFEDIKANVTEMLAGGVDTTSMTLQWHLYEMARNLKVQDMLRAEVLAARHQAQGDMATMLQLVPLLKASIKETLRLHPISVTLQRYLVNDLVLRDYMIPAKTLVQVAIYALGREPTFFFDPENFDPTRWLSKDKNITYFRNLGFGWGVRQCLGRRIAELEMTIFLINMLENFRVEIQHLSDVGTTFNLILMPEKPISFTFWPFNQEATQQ
Briefly: CYP11A1 inhibition: modified isocaproic acid release assay (IARA) in H295R cells. In kind it is cell-based. The conditions noted are these: human H295R adrenocortical carcinoma cells treated three days, 3 nM [24,25-3H]-labelled cholesterol, 1% DMSO, 10 concentrations in duplicates; read-out: IC50 of the test compounds on CYP11A1 inhibition. The gist of the method: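 H295R adrenocortical cells treated three days with test compounds at 10 concentrations in duplicate plus 3 nM [24,25-3H]-cholesterol, 1% DMSO final. Released radiolabelled isocaproic acid measured by scintillation counting after dextran-coated charcoal extraction; IC50 determined.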
On to `C#CCNC(=O)c1ccc(COc2coc(CN3Cc4ccccc4C3)cc2=O)cc1` [Compound 141, 4-(((6-(Isoindolin-2-ylmethyl)-4-oxo-4H-pyran-3-yl)oxy)methyl)-N-(prop-2-yn-1-yl)benzamide], for which the IC50 is 301 to 2000 nM.

`CCC(=O)N1CCC(COc2coc(CN3Cc4ccc(C(F)(F)F)cc4C3)cc2=O)CC1` [Compound 244a, 5-((1-Propionylpiperidin-4-yl)methoxy)-2-((5-(trifluoromethyl)isoindolin-2-yl)methyl)-4H-pyran-4-one]: the IC50 is less than 150 nM.

Regarding `CS(=O)(=O)N[C@@H]1CC[C@H](COc2coc(CN3Cc4ccccc4C3)cc2=O)C1` (relative stereo) [Compound 276, Cis-N-(3-(((6-(Isoindolin-2-ylmethyl)-4-oxo-4H-pyran-3-yl)oxy)methyl)-cyclo-pentyl)-methanesulfonamide], the IC50 fell in the range of 150 to 300 nM.

Turning to `CC(C)N(C(=O)c1ccc(COc2coc(CN3Cc4ccccc4C3)cc2=O)cc1)C(C)C` [Compound 134], the IC50 was less than 150 nM.

On to `CC(C)C(=O)N1CCC(COc2coc(CN3Cc4ccccc4C3)cc2=O)CC1` [Compound 272, 5-((1-Isobutyrylpiperidin-4-yl)methoxy)-2-(isoindolin-2-ylmethyl)-4H-pyran-4-one], for which the concentration for half-maximal inhibition (IC50) is less than 150 nM.

With `CS(=O)(=O)N(C1CCC(COc2coc(CN3Cc4ccccc4C3)cc2=O)CC1)C1CC1` (centres unmarked) [Compound 219, N-Cyclopropyl-N-(4-(((6-(isoindolin-2-ylmethyl)-4-oxo-4H-pyran-3-yl)oxy)-methyl)cyclohexyl)methanesulfonamide], the IC50 is less than 150 nM.

`CCN(CC)S(=O)(=O)c1ccc(COc2coc(CN3Cc4ccccc4C3)cc2=O)cc1` [Compound 4, N,N-Diethyl-4-(((6-(isoindolin-2-ylmethyl)-4-oxo-4H-pyran-3-yl)oxy)methyl)-benzenesulfonamide]: the IC50 fell in the range of 150 to 300 nM.

`CS(=O)(=O)c1ccc(COc2coc(CN3Cc4ccc([N+](=O)[O-])cc4C3)cc2=O)cc1` [Compound 68, 5-((4-(Methylsulfonyl)benzyl)oxy)-2-((5-nitroisoindolin-2-yl)methyl)-4H-pyran-4-one]: the IC50 lay within 150 to 300 nM.

On to `CS(=O)(=O)c1ccc(COc2coc(CN3Cc4ccccc4C3)cc2=O)cc1F` [Compound 17, 5-((3-Fluoro-4-(methylsulfonyl)benzyl)oxy)-2-(isoindolin-2-ylmethyl)-4H-pyran-4-one], for which the IC50 fell in the range of 301 to 2000 nM.

As to `O=c1cc(CN2Cc3ccccc3C2)occ1OCc1ccc(Br)cc1` [Compound 58, 5-((4-Bromobenzyl)oxy)-2-(isoindolin-2-ylmethyl)-4H-pyran-4-one], the IC50 lay within 301 to 2000 nM.

Take `COCCNS(=O)(=O)c1ccc(COc2coc(CN3Cc4ccccc4C3)cc2=O)cc1` [Compound 11, 4-(((6-(Isoindolin-2-ylmethyl)-4-oxo-4H-pyran-3-yl)oxy)methyl)-N-(2-methoxyethyl)benzenesulfonamide]: the IC50 is less than 150 nM.

With `CC(F)(F)C(=O)N1CCC(COc2coc(CN3Cc4ccccc4C3)cc2=O)CC1` [Compound 222, 5-((1-(2,2-Difluoropropanoyl)piperidin-4-yl)methoxy)-2-(isoindolin-2-ylmethyl)-4H-pyran-4-one], the IC50 was less than 150 nM.

Consider `C[C@H]1c2ccccc2CN1Cc1cc(=O)c(OCc2ccc(C(=O)N(C)C)cc2)co1` [Compound 132, (S)—N,N-Dimethyl-4-(((6-((1-methylisoindolin-2-yl)methyl)-4-oxo-4H-pyran-3-yl)oxy)methyl)benzamide], for which the IC50 is 301 to 2000 nM.

Turning to `CN(C)C(=O)c1ccc(COc2coc(CN3CCc4cc(F)ccc4C3)cc2=O)cc1` [Compound 124, 4-(((6-((6-Fluoro-3,4-dihydroisoquinolin-2(1H)-yl)methyl)-4-oxo-4H-pyran-3-yl)oxy)methyl)-N,N-dimethylbenzamide], the 50% inhibitory concentration (IC50) was in the range of 150 to 300 nM.

With `CS(=O)(=O)N1CCC(COc2coc(C[N+]3([O-])Cc4ccccc4C3)cc2=O)CC1` [Compound 289, 2-((5-((1-(Methylsulfonyl)piperidin-4-yl)methoxy)-4-oxo-4H-pyran-2-yl)-methyl)isoindoline 2-oxide], the IC50 was in the range of 301 to 2000 nM.

Take `CS(=O)(=O)N1CCC(CCOc2coc(CN3Cc4ccccc4C3)cc2=O)CC1` [Compound 198, 2-(Isoindolin-2-ylmethyl)-5-(2-(1-(methylsulfonyl)piperidin-4-yl)ethoxy)-4H-pyran-4-one]: the IC50 fell in the range of 150 to 300 nM.

Take `O=c1cc(CN2Cc3ccccc3C2)occ1OCC1CCN(S(=O)(=O)C2COC2)CC1` [Compound 36, 2-(Isoindolin-2-ylmethyl)-5-((1-(oxetan-3-ylsulfonyl)piperidin-4-yl)methoxy)-4H-pyran-4-one]: the half-maximal inhibitory concentration (IC50) is less than 150 nM.

Consider `O=c1cc(CN2Cc3ccccc3C2)occ1OCc1ccc(-n2cccn2)cc1` [Compound 108, 5-((4-(1H-Pyrazol-1-yl)benzyl)oxy)-2-(isoindolin-2-ylmethyl)-4H-pyran-4-one], for which the IC50 fell in the range of 150 to 300 nM.

For `CC(c1cc(=O)c(OCc2ccc(S(C)(=N)=O)cc2)co1)N1Cc2ccccc2C1` (centres unmarked) [Compound 91, 2-(1-(Isoindolin-2-yl)ethyl)-5-((4-(S-methylsulfonimidoyl)benzyl)oxy)-4H-pyran-4-one], the IC50 was less than 150 nM.

Regarding `O=C(NCCCCO)c1ccc(COc2coc(CN3Cc4ccccc4C3)cc2=O)cc1` [Compound 145, N-(4-Hydroxybutyl)-4-(((6-(isoindolin-2-ylmethyl)-4-oxo-4H-pyran-3-yl)oxy)-methyl)benzamide], the IC50 was 301 to 2000 nM.

On to `O=c1cc(CN2Cc3ccccc3C2)occ1OCc1ccc(-n2cc(Br)cn2)cc1` [Compound 39, 5-((4-(4-Bromo-1H-pyrazol-1-yl)benzyl)oxy)-2-(isoindolin-2-ylmethyl)-4H-pyran-4-one], for which the IC50 fell in the range of 150 to 300 nM.

Regarding `CC(C)(C)NC(=O)c1ccc(COc2coc(CN3CCc4ccccc4C3)cc2=O)cc1` [Compound 135, N-(tert-Butyl)-4-(((6-((3,4-dihydroisoquinolin-2(1H)-yl)methyl)-4-oxo-4H-pyran-3-yl)oxy)methyl)benzamide], the IC50 lay within 150 to 300 nM.

Take `O=c1cc(CN2Cc3ccccc3C2)occ1OCC1CCN(S(=O)(=O)c2ccc(F)cc2)CC1` [Compound 256, 5-((1-((4-Fluorophenyl)sulfonyl)piperidin-4-yl)methoxy)-2-(isoindolin-2-yl-methyl)-4H-pyran-4-one]: the IC50 is 150 to 300 nM.

Consider `O=C(c1ccc(COc2coc(CN3Cc4ccccc4C3)cc2=O)cc1)N1CCC(O)CC1` [Compound 152, 5-((4-(4-Hydroxypiperidine-1-carbonyl)benzyl)oxy)-2-(isoindolin-2-ylmethyl)-4H-pyran-4-one], for which the IC50 lay within 301 to 2000 nM.

Turning to `O=c1cc(CN2Cc3ccc(F)cc3C2)occ1OCc1ccc(C2(O)COC2)cc1` [Compound 115, 2-((5-Fluoroisoindolin-2-yl)methyl)-5-((4-(3-hydroxyoxetan-3-yl)benzyl)oxy)-4H-pyran-4-one], the IC50 was less than 150 nM.

As for `CCS(=O)(=O)N1CC=C(COc2coc(CN3Cc4ccccc4C3)cc2=O)CC1` [Compound 99, 5-((1-(Ethylsulfonyl)-1,2,3,6-tetrahydropyridin-4-yl)methoxy)-2-(isoindolin-2-ylmethyl)-4H-pyran-4-one], the IC50 is 150 to 300 nM.

With `O=C(c1ccc(COc2coc(CN3Cc4ccccc4C3)cc2=O)cc1)N1CCCC1` [Compound 122, 2-(Isoindolin-2-ylmethyl)-5-((4-(pyrrolidine-1-carbonyl)benzyl)oxy)-4H-pyran-4-one], the IC50 was less than 150 nM.

With `CS(=O)(=O)N1C=CC(COc2coc(CN3Cc4ccc(C(F)(F)F)cc4C3)cc2=O)CC1` (centres unmarked) [Compound 291, 5-((1-(Methylsulfonyl)-1,2,3,4-tetrahydropyridin-4-yl)methoxy)-2-((5-(trifluoro-methyl)isoindolin-2-yl)methyl)-4H-pyran-4-one], the IC50 fell in the range of 150 to 300 nM.

Regarding `CC(C)(C)NC(=O)N1CCC(COc2coc(CN3Cc4ccccc4C3)cc2=O)CC1` [Compound 248, N-(tert-Butyl)-4-(((6-(isoindolin-2-ylmethyl)-4-oxo-4H-pyran-3-yl)oxy)-methyl)piperidine-1-carboxamide], the IC50 was in the range of 150 to 300 nM.

Consider `CC(=O)N=S1(=O)CCC(COc2coc(CN3Cc4ccccc4C3)cc2=O)CC1` (centres unmarked) [Compound 243, N-(4-(((6-(Isoindolin-2-ylmethyl)-4-oxo-4H-pyran-3-yl)oxy)methyl)-1-oxido-tetrahydro-2H-1λ^6-thiopyran-1-ylidene)acetamide], for which the IC50 lay within 301 to 2000 nM.

Consider `O=C(COc1coc(CN2Cc3ccccc3C2)cc1=O)N1CCC(Cc2ccccc2)CC1` [Compound 155, 5-(2-(4-Benzylpiperidin-1-yl)-2-oxoethoxy)-2-(isoindolin-2-ylmethyl)-4H-pyran-4-one], for which the IC50 fell in the range of 301 to 2000 nM.

Take `CS(=O)(=O)N1[C@@H]2CC[C@H]1CC(COc1coc(CN3Cc4ccccc4C3)cc1=O)C2` (stereo partly drawn) [Compound 177, 2-(Isoindolin-2-ylmethyl)-5-(((1R,5S)-8-(methylsulfonyl)-8-azabicyclo[3.2.1]-octan-3-yl)methoxy)-4H-pyran-4-one]: the IC50 was in the range of 150 to 300 nM.
